{"source": "patent US20220226586A1", "about": "“An Inhaler For Electronically Supervised Parenteral Administration of a Pharmaceutical Composition” (Celon Pharma S.A., priority 2019, published 2022)", "key": {"[1]": {"conditions": "cited from earlier work"}, "[2]": {"conditions": "cited from earlier work", "remark": "listed apart in the source"}, "[3]": {"tested_on": "treatment-resistant depression", "conditions": "cited from earlier work"}, "[4]": {"conditions": "nebulized saline solution, inhalation; cited from earlier work"}, "[5]": {"assay": "Pharmacokinetics of inhaled esketamine dry powder in healthy volunteers", "type": "in vivo", "conditions": "overall conclusion", "description": "Esketamine hydrochloride dry powder formulation of Example 2 was administered to healthy volunteers pulmonary, i.e. directly to the lungs using dry powder inhaler (DPI) (by self-administration).\nOne puff of dry powder formulation contained 4.6 mg of esketamine hydrochloride, corresponding to 4 mg of esketamine free base and excipients 18.22 mg of lactose monohydrate and 0.18 mg of magnesium stearate.\nA single dose was an inhalation events consisting of 1 to 6 puffs, i.e. 4 to 24 mg of esketamine free base nominal dose.\nIn part A of the study, designed as a one-centre single ascending dose, the medicine was delivered in a single dose once daily (up to 6 consecutive puffs) to 18 healthy volunteer subjects. Subjects were divided into 6 cohorts, cohorts receiving 1, 2, 3, 4, 5 or 6 puffs in a single doses (inhalation events), respectively.\nCollection of blood samples for determination of esketamine and esnorketamine concentration and calculation of pharmacokinetic parameters was performed for up 24 hours following the start of the test.\nThe aim of the study was to determine the amount of puffs needed to obtain plasma concentration similar to that sufficient to achieve antidepressant effect as for 0.20 mg/kg 40 minutes intravenous infusion. It can be predicted on the basis of literature data that this corresponds to concentration at 40 min of infusion between about 60 to 100 ng/ml. […]"}, "NMDA receptor": {"tested_on": "NMDA receptor", "conditions": "cited from earlier work"}, "[6]": {"conditions": "after intravenous infusion of racemic ketamine"}, "[7]": {"conditions": "after oral administration of ketamine"}}, "note": "Where a name gives a salt, the structure may show the parent alone.", "data": [{"smiles": "CNC1(c2ccccc2Cl)CCCCC1=O", "note": "(racemic) [ketamine]", "values": [{"measurement": "half-period of concentration fall", "setting": "[1]; after intravenous infusion 0.5 mg/kg for 40 minutes", "result": "below 2 hours"}, {"measurement": "systemic concentration of parent drug", "setting": "[1]; intravenous infusion 0.5 mg/kg for 40 minutes, maintained for about 40 minutes", "result": "about 200 ng/ml"}, {"measurement": "bioavailability", "setting": "[2]; orally administered", "result": "16-20%"}, {"measurement": "fraction of patients with treatment-resistant depression responsive to treatment", "setting": "[3]; human, in vivo", "result": "about 2/3"}]}, {"smiles": "CN[C@]1(c2ccccc2Cl)CCCCC1=O", "note": "[esketamine hydrochloride]", "values": [{"measurement": "inhaled bioavailability", "setting": "[4]", "result": "reduced"}]}, {"smiles": "CN[C@]1(c2ccccc2Cl)CCCCC1=O", "note": "[esketamine]", "values": [{"measurement": "plasma concentration profile after pulmonary administration", "setting": "[5]", "result": "quite smooth, consistent with a target profile and safe for chronic administration"}, {"measurement": "antidepressant effect in TRD patients", "setting": "[3]; 40-minute i.v. infusion of 0.20 mg/kg or 0.40 mg/kg (Singh et al.)", "result": "rapid onset of robust antidepressant effects"}]}, {"smiles": "NC1(c2ccccc2Cl)CCCCC1=O", "note": "(stereo not drawn) [norketamine]", "values": [{"measurement": "maximum concentration as % of ketamine concentration", "setting": "[1]; [6]", "result": "10-20%"}, {"measurement": "percentage of AUC norketamine to ketamine", "setting": "[1]; [6]", "result": "20-40%"}, {"measurement": "activity on NMDA receptor relative to ketamine", "setting": "NMDA receptor", "result": "many times less active than ketamine"}, {"measurement": "AUC relative to ketamine", "setting": "[2]; [7]", "result": "exceeding 1000%"}, {"measurement": "level as % of ketamine level", "setting": "[2]; [7]", "result": "500-1000%"}]}]}
